From patent publication EP1585727B1, “INDOLES USEFUL IN THE TREATMENT OF ANDROGEN-RECEPTOR RELATED DISEASES” (priority 2002, dated 2004)

Biological target: T1, human androgen receptor (Homo sapiens, UniProt P10275)
T1 construct: expressed in transfected cells; host or cells: Chinese hamster ovary (CHO) cells, cell line CHO-AR-pMMTV-LUC 1G12-A5-CA
T1 sequence (P10275 1-920): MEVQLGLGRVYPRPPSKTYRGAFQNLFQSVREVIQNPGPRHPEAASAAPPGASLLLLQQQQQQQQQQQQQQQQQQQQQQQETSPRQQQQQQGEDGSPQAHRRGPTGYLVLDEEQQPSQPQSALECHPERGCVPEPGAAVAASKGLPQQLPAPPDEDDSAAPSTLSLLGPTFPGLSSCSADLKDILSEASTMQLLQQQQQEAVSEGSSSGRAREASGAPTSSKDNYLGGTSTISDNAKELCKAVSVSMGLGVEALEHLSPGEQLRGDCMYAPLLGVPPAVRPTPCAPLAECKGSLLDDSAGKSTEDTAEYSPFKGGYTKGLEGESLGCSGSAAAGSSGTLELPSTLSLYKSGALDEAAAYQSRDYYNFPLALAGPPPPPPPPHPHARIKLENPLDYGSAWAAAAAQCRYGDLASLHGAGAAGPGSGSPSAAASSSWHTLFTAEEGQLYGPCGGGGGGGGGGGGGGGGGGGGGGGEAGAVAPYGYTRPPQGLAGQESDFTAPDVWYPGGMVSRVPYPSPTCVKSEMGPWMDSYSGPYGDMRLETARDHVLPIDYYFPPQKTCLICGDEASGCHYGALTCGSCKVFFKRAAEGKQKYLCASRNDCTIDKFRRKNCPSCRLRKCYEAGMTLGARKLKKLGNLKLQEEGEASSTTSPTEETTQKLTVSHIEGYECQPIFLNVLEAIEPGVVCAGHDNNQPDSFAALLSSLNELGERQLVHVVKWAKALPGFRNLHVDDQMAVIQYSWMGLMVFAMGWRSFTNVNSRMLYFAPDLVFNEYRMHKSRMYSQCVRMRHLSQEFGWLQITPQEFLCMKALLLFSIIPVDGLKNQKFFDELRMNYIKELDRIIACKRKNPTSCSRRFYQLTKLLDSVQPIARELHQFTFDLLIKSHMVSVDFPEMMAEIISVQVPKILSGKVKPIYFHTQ
Assay: Androgen receptor transactivation assay, androgenic activity in the presence of 0.1 µmol/l onapristone (CHO-AR-pMMTV-LUC cells; Table 5)
Type: cell-based
Conditions: for ago efficacy: maximal intrinsic activity in the presence of 100 nM DHT set at 1.00; for ago potency: potency expressed as percentage of DHT activity
Description: The androgenic activity (EC50, potency, and efficacy) of the compounds in Table 5 was determined in an in vitro bioassay of Chinese hamster ovary (CHO) cells stably transfected with the human androgen receptor expression plasmid and a reporter plasmid in which the MMTV promotor is linked to the luciferase reporter gene. The cell line CHO-AR-pMMTV-LUC 1G12-A5-CA is described in Schoonen et al. (J. Steroid Biochem. Molec. Biol. […]; 74: 213-222). The androgen receptor activity of compounds was determined in the presence of 0.1 µmol/l onapristone. The maximal efficacy in the presence of 100 nmol/l DHT was set as 100%. The potencies are expressed as percentage of DHT activity. Table 5 Androgen receptor activity

Structure (SMILES) | ago efficacy | ago potency
O=C(Nc1ccc2c(Sc3ccccc3[N+](=O)[O-])cn(Cc3cc(F)cc(F)c3)c2c1)C(F)F [Compound 98, N-[1-(3,5-Difluoro-benzyl)-3-(2-nitro-phenylsulfanyl)-1H-indol-6-yl]-2,2-difluoro-acetamide] | + (between 0.50 and 0.80) | ++ (>5%)
CCC(=O)Nc1ccc2c(Sc3ccccc3[N+](=O)[O-])cn(Cc3cc(F)cc(F)c3)c2c1 [Compound 99, N-[1-(3,5-Difluoro-benzyl)-3-(2-nitro-phenylsulfanyl)-1H-indol-6-yl]-propionamide] | + (between 0.50 and 0.80) | ± (between 0.1 % and 1%)
O=C(CF)Nc1ccc2c(Sc3ccccc3[N+](=O)[O-])cn(Cc3ccccn3)c2c1 [Compound 100, 2-Fluoro-N-[3-(2-nitro-phenylsulfanyl)-1-pyridin-2-ylmethyl-1H-indol-6-yl]-acetamide] | ++ (≥0.80) | + (between 1% and 5%)
CC(=O)Nc1ccc2c(Sc3ccccc3[N+](=O)[O-])cn(Cc3ccccn3)c2c1 [Compound 101, N-[3-(2-Nitro-phenylsulfanyl)-1-pyridin-2-ylmethyl-1H-indol-6-yl]-acetamide] | + (between 0.50 and 0.80) | + (between 1% and 5%)
CCC(=O)Nc1ccc2c(Sc3ccccc3[N+](=O)[O-])cn(Cc3ccccn3)c2c1 [Compound 102, N-[3-(2-Nitro-phenylsulfanyl)-1-pyridin-2-ylmethyl-1H-indol-6-yl]-propionamide] | + (between 0.50 and 0.80) | + (between 1% and 5%)
CC(=O)Nc1ccc2c(Sc3ccccc3[N+](=O)[O-])cn(Cc3cccnc3)c2c1 [Compound 103, N-[3-(2-Nitro-phenylsulfanyl)-1-pyridin-3-ylmethyl-1H-indol-6-yl]-acetamide] | + (between 0.50 and 0.80) | + (between 1% and 5%)
O=C(CF)Nc1ccc2c(Sc3ccccc3[N+](=O)[O-])cn(Cc3cccnc3)c2c1 [Compound 104, 2-Fluoro-N-[3-(2-nitro-phenylsulfanyl)-1-pyridin-3-ylmethyl-1H-indol-6-yl]-acetamide] | - (<0.20) | + (between 1% and 5%)
CCC(=O)Nc1ccc2c(Sc3ccccc3[N+](=O)[O-])cn(Cc3cccnc3)c2c1 [Compound 105, N-[3-(2-Nitro-phenylsulfanyl)-pyridin-3-ylmethyl-1H-indol-6-yl]-propionamide] | ± (between 0.20 and 0.50) | + (between 1% and 5%)
CS(=O)(=O)Nc1ccc2c(Sc3ccccc3[N+](=O)[O-])cn(Cc3cc(F)cc(F)c3)c2c1 [Compound 106, N-[1-(3,5-Difluoro-benzyl)-3-(2-nitro-phenylsulfanyl)-1H-indol-6-yl]-methanesulfonamide] | ++ (≥0.80) | + (between 1% and 5%)
O=[N+]([O-])c1ccccc1Sc1cn(Cc2cc(F)cc(F)c2)c2cc(NS(=O)(=O)c3ccsc3)ccc12 [Compound 107, Thiophene-3-sulfonic acid [1-(3,5-difluoro-benzyl)-3-(2-nitro-phenylsulfanyl)-1H-indol-6-yl]-amide] | ++ (≥0.80) | + (between 1% and 5%)
Cn1cnc(S(=O)(=O)Nc2ccc3c(Sc4ccccc4[N+](=O)[O-])cn(Cc4cc(F)cc(F)c4)c3c2)c1 [Compound 108, 1-Methyl-1H-imidazole-4-sulfonic acid [1-(3,5-difluoro-benzyl)-3-(2-nitro-phenylsulfanyl)-1H-indol-6-yl]-amide] | ++ (≥0.80) | + (between 1% and 5%)
CN(C)C(=O)c1ccc2c(Sc3ccccc3[N+](=O)[O-])cn(Cc3ccccn3)c2c1 [Compound 109, 3-(2-Nitro-phenylsulfanyl)-1-pyridin-2-ylmethyl-1H-indole-6-carboxylic acid dimethylamide] | ++ (≥0.80) | + (between 1% and 5%)
CNC(=O)c1ccc2c(Sc3ccccc3[N+](=O)[O-])cn(Cc3ccccn3)c2c1 [Compound 110, 3-(2-Nitro-phenylsulfanyl)-1-pyridin-2-ylmethyl-1H-indole-6-carboxylic acid methylamide] | + (between 0.50 and 0.80) | + (between 1% and 5%)
NC(=O)c1ccc2c(Sc3ccccc3[N+](=O)[O-])cn(Cc3ccccn3)c2c1 [Compound 111, 3-(2-Nitro-phenylsulfanyl)-1-pyridin-2-ylmethyl-1H-indole-6-carboxylic acid amide] | ± (between 0.20 and 0.50) | ± (between 0.1 % and 1%)
CNC(=O)c1ccc2c(Sc3ccccc3[N+](=O)[O-])cn(Cc3cccnc3)c2c1 [Compound 112, 3-(2-Nitro-phenylsulfanyl)-1-pyridin-3-ylmethyl-1H-indole-6-carboxylic acid methylamide] | ± (between 0.20 and 0.50) | + (between 1% and 5%)
CCNC(=O)c1ccc2c(Sc3ccccc3[N+](=O)[O-])cn(Cc3cccnc3)c2c1 [Compound 113, 3-(2-Nitro-phenylsulfanyl)-1-pyridin-3-ylmethyl-1H-indole-6-carboxylic acid ethylamide] | + (between 0.50 and 0.80) | + (between 1% and 5%)
O=C(NC1CC1)c1ccc2c(Sc3ccccc3[N+](=O)[O-])cn(Cc3cccnc3)c2c1 [Compound 114, 3-(2-Nitro-phenylsulfanyl)-1-pyridin-3-ylmethyl-1H-indole-6-carboxylic acid cyclopropylamide] | ++ (≥0.80) | + (between 1% and 5%)
COc1ccc2c(Sc3ccccc3[N+](=O)[O-])cn(Cc3cncnc3)c2c1 [Compound 115, 6-Methoxy-3-(2-nitro-phenylsulfanyl)-1-pyrimidin-5-ylmethyl-1H-indole] | + (between 0.50 and 0.80) | ++ (>5%)
COc1ccc2c(Sc3ccccc3[N+](=O)[O-])cn(Cc3ccncn3)c2c1 [Compound 116, 6-Methoxy-3-(2-nitro-phenylsulfanyl)-1-pyrimidin-4-ylmethyl-1H-indole] | + (between 0.50 and 0.80) | + (between 1% and 5%)
COc1ccc2c(Sc3ccccc3[N+](=O)[O-])cn(Cc3cnccn3)c2c1 [Compound 117, 6-Methoxy-3-(2-nitro-phenylsulfanyl)-1-pyrazin-2-ylmethyl-1H-indole] | + (between 0.50 and 0.80) | + (between 1% and 5%)
O=CNc1ccc2c(Sc3ccccc3[N+](=O)[O-])cn(Cc3cncnc3)c2c1 [Compound 118, N-[3-(2-Nitro-phenylsulfanyl)-1-pyrimidin-5-ylmethyl-1H-indol-6-yl]-formamide] | + (between 0.50 and 0.80) | ++ (>5%)
N#Cc1ccc2c(Sc3ccccc3[N+](=O)[O-])cn(Cc3ccccn3)c2c1 [Compound 119, 3-(2-Nitro-phenylsulfanyl)-1-pyridin-2-ylmethyl-1H-indole-6-carbonitrile] | ++ (≥0.80) | ++ (>5%)
Cl.N#Cc1ccc2c(Sc3ccccc3[N+](=O)[O-])cn(Cc3ccccn3)c2c1 [Compound 120, 3-(2-Nitro-phenylsulfanyl)-1-pyridin-2-ylmethyl-1H-indole-6-carbonitrile monohydrochloride] | ++ (≥0.80) | ++ (>5%)
N#Cc1ccc2c(Sc3ccccc3[N+](=O)[O-])cn(Cc3cccnc3)c2c1 [Compound 121, 3-(2-Nitro-phenylsulfanyl)-1-pyridin-3-ylmethyl-1H-indole-6-carbonitrile] | ++ (≥0.80) | + (between 1% and 5%)
N#Cc1ccc2c(Sc3ccccc3[N+](=O)[O-])cn(Cc3ccncc3)c2c1 [Compound 122, 3-(2-Nitro-phenylsulfanyl)-1-pyridin-4-ylmethyl-1H-indole-6-carbonitrile] | + (between 0.50 and 0.80) | + (between 1% and 5%)
N#Cc1ccc2c(Sc3ccccc3[N+](=O)[O-])cn(Cc3cncnc3)c2c1 [Compound 123, 3-(2-Nitro-phenylsulfanyl)-1-pyrimidin-5-ylmethyl-1H-indole-6-carbonitrile] | ++ (≥0.80) | ++ (>5%)
